Test results from the supplement of paper PMC10307832.

compound: O=C(NC1CCNCC1)c1n[nH]cc1NC(=O)c1c(Cl)cccc1Cl [AT-7519] + CC(=O)c1c(C)c2cnc(Nc3ccc(N4CCNCC4)cn3)nc2n(C2CCCC2)c1=O [Palbociclib] (partner 0.5 µM); experiment: relative viability (nuclei count vs DMSO), 5 days (fraction); higher = more cells survive; conditions: first compound 0.01 µM
Summary of the method: (§1)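 Relative viability equals treated-well nuclei counts divided by vehicle-well nuclei counts. Counts came from 4× images of lung cancer cell lines grown in 1536-well plates for 5 days after pin-tool dosing on the day after seeding. Dosing used one drug alone or a fixed anchor-drug dose plus five library-drug doses (not always all listed) in √10 steps, and values are medians of duplicate plates.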

| Cell Line | relative viability |
| --- | --- |
| NCI-H2342 | 0.53 |
| NCI-H727 | 0.621 |
| NCI-H1650 | 0.284 |
| NCI-H1993 | 0.759 |
| SW 1573 | 0.38 |
| NCI-H838 | 0.233 |
| LCLC-103H | 0.513 |
| NCI-H520 | 0.226 |
| NCI-H2126 | 0.348 |
| EMC-BAC-2 | 0.504 |
| NCI-H2085 | 0.454 |
| HCC-366 | 0.393 |
| NCI-H1666 | 0.642 |
| LK-2 | 0.783 |
| NCI-H2087 | 0.226 |
| NCI-H1648 | 0.32 |
| SK-MES-1 | 0.304 |
| H3255 | 0.376 |
| COR-L23 | 0.306 |
| COR-L 105 | 0.382 |
| LOU-NH91 | 0.491 |
| ChaGo-K-1 | 0.952 |
| NCI-H2170 | 0.418 |
| NCI-H2405 | 0.534 |

| Cell Line | relative viability |
| --- | --- |
| HOP-62 | 0.422 |
| HCC-44 | 0.975 |
| NCI-H522 | 0.969 |
| LU99A | 0.443 |
| BEN | 0.5 |
| HARA | 0.194 |
| SW 900 | 0.552 |
| HCC-78 | 0.423 |
| NCI-H322M | 0.501 |
| LCLC-97TM1 | 0.228 |
| NCI-H2009 | 0.209 |
| A-427 | 0.551 |
| NCI-H441 | 0.202 |
| NCI-H661 | 0.382 |
| NCI-H1734 | 0.288 |
| NCI-H460 | 0.137 |
| NCI-H2347 | 0.397 |
| SK-LU-1 | 0.38 |
| NCI-H1395 | 0.561 |
| 201T | 0.339 |
| NCI-H1915 | 0.592 |
| HCC-827 | 0.433 |
| LXF-289 | 0.597 |
| NCI-H23 | 0.594 |

| Cell Line | relative viability |
| --- | --- |
| NCI-H647 | 0.442 |
| CAL-12T | 0.396 |
| NCI-H1651 | 0.517 |
| EPLC-272H | 0.346 |
| NCI-H2228 | 0.638 |
| NCI-H1355 | 0.348 |
| NCI-H3122 | 0.212 |
| NCI-H1437 | 0.282 |
| NCI-H1755 | 0.477 |
| NCI-H2023 | 0.393 |
| HCC-15 | 0.779 |
| NCI-H1793 | 0.309 |
| PC-14 | 0.433 |
| EKVX | 0.498 |
| LC-2-ad | 0.497 |
| NCI-H1944 | 0.314 |
| NCI-H1975 | 0.51 |
| RERF-LC-KJ | 1.09 |
| ABC-1 | 0.778 |
| NCI-H358 | 0.138 |
| NCI-H650 | 0.329 |
| PC-3 [JPC-3] | 0.591 |

same assay, conditions: first compound 0.03162 µM

| Cell Line | relative viability |
| --- | --- |
| NCI-H2342 | 0.491 |
| NCI-H727 | 0.698 |
| NCI-H1650 | 0.331 |
| NCI-H1993 | 0.638 |
| SW 1573 | 0.368 |
| NCI-H838 | 0.21 |
| LCLC-103H | 0.42 |
| NCI-H520 | 0.197 |
| NCI-H2126 | 0.352 |
| EMC-BAC-2 | 0.506 |
| NCI-H2085 | 0.503 |
| HCC-366 | 0.228 |
| NCI-H1666 | 0.658 |
| LK-2 | 0.968 |
| NCI-H2087 | 0.224 |
| SK-MES-1 | 0.31 |
| H3255 | 0.309 |
| COR-L23 | 0.28 |
| COR-L 105 | 0.416 |
| LOU-NH91 | 0.552 |
| ChaGo-K-1 | 0.938 |
| NCI-H2170 | 0.427 |
| NCI-H2405 | 0.523 |

| Cell Line | relative viability |
| --- | --- |
| HOP-62 | 0.465 |
| HCC-44 | 0.961 |
| NCI-H522 | 0.967 |
| LU99A | 0.411 |
| BEN | 0.515 |
| SW 900 | 0.595 |
| HCC-78 | 0.431 |
| NCI-H322M | 0.486 |
| LCLC-97TM1 | 0.234 |
| NCI-H2009 | 0.2 |
| A-427 | 0.491 |
| NCI-H441 | 0.195 |
| NCI-H661 | 0.432 |
| NCI-H1734 | 0.319 |
| NCI-H460 | 0.142 |
| NCI-H2347 | 0.44 |
| SK-LU-1 | 0.361 |
| NCI-H1395 | 0.699 |
| 201T | 0.34 |
| NCI-H1915 | 0.509 |
| HCC-827 | 0.494 |
| LXF-289 | 0.656 |
| NCI-H23 | 0.508 |

| Cell Line | relative viability |
| --- | --- |
| NCI-H647 | 0.369 |
| CAL-12T | 0.471 |
| NCI-H1651 | 0.504 |
| EPLC-272H | 0.324 |
| NCI-H2228 | 0.642 |
| NCI-H1355 | 0.389 |
| NCI-H3122 | 0.506 |
| NCI-H1437 | 0.319 |
| NCI-H1755 | 0.478 |
| NCI-H2023 | 0.401 |
| HCC-15 | 0.717 |
| NCI-H1793 | 0.299 |
| PC-14 | 0.502 |
| EKVX | 0.369 |
| LC-2-ad | 0.466 |
| NCI-H1944 | 0.322 |
| NCI-H1975 | 0.599 |
| RERF-LC-KJ | 1.13 |
| ABC-1 | 0.702 |
| NCI-H358 | 0.139 |
| NCI-H650 | 0.335 |
| PC-3 [JPC-3] | 0.548 |

same assay, conditions: first compound 0.3162 µM

| Cell Line | relative viability |
| --- | --- |
| NCI-H2342 | 0.497 |
| NCI-H727 | 0.658 |
| NCI-H1650 | 0.27 |
| NCI-H1993 | 0.612 |
| SW 1573 | 0.212 |
| NCI-H838 | 0.194 |
| LCLC-103H | 0.432 |
| NCI-H520 | 0.209 |
| NCI-H2126 | 0.358 |
| EMC-BAC-2 | 0.468 |
| NCI-H2085 | 0.515 |
| HCC-366 | 0.317 |
| NCI-H1666 | 0.674 |
| LK-2 | 0.675 |
| NCI-H2087 | 0.186 |
| NCI-H1648 | 0.242 |
| SK-MES-1 | 0.295 |
| H3255 | 0.328 |
| COR-L23 | 0.265 |
| COR-L 105 | 0.371 |
| LOU-NH91 | 0.524 |
| ChaGo-K-1 | 0.922 |
| NCI-H2170 | 0.345 |
| NCI-H2405 | 0.532 |

| Cell Line | relative viability |
| --- | --- |
| HOP-62 | 0.489 |
| HCC-44 | 0.965 |
| NCI-H522 | 0.995 |
| LU99A | 0.389 |
| BEN | 0.455 |
| HARA | 0.273 |
| SW 900 | 0.512 |
| HCC-78 | 0.611 |
| NCI-H322M | 0.419 |
| LCLC-97TM1 | 0.215 |
| NCI-H2009 | 0.19 |
| A-427 | 0.467 |
| NCI-H441 | 0.141 |
| NCI-H661 | 0.4 |
| NCI-H1734 | 0.353 |
| NCI-H460 | 0.0995 |
| NCI-H2347 | 0.469 |
| SK-LU-1 | 0.361 |
| NCI-H1395 | 0.573 |
| 201T | 0.32 |
| NCI-H1915 | 0.608 |
| HCC-827 | 0.478 |
| LXF-289 | 0.527 |
| NCI-H23 | 0.482 |

| Cell Line | relative viability |
| --- | --- |
| NCI-H647 | 0.413 |
| CAL-12T | 0.172 |
| NCI-H1651 | 0.547 |
| EPLC-272H | 0.302 |
| NCI-H2228 | 0.636 |
| NCI-H1792 | 0.692 |
| NCI-H1355 | 0.359 |
| NCI-H3122 | 0.221 |
| NCI-H1437 | 0.295 |
| NCI-H1755 | 0.435 |
| NCI-H2023 | 0.243 |
| HCC-15 | 0.618 |
| NCI-H1793 | 0.305 |
| PC-14 | 0.338 |
| EKVX | 0.299 |
| LC-2-ad | 0.484 |
| NCI-H1944 | 0.292 |
| NCI-H1975 | 0.362 |
| RERF-LC-KJ | 0.86 |
| ABC-1 | 0.549 |
| NCI-H358 | 0.108 |
| NCI-H650 | 0.296 |
| PC-3 [JPC-3] | 0.508 |

same assay, conditions: first compound 1 µM

| Cell Line | relative viability |
| --- | --- |
| NCI-H2342 | 0.533 |
| NCI-H727 | 0.427 |
| NCI-H1650 | 0.164 |
| NCI-H1993 | 0.229 |
| SW 1573 | 0.109 |
| NCI-H838 | 0.1 |
| LCLC-103H | 0.418 |
| NCI-H520 | 0.194 |
| NCI-H2126 | 0.341 |
| EMC-BAC-2 | 0.513 |
| NCI-H2085 | 0.608 |
| HCC-366 | 0.139 |
| NCI-H1666 | 0.655 |
| LK-2 | 0.547 |
| NCI-H2087 | 0.116 |
| NCI-H1648 | 0.245 |
| SK-MES-1 | 0.204 |
| H3255 | 0.308 |
| COR-L23 | 0.157 |
| COR-L 105 | 0.354 |
| LOU-NH91 | 0.461 |
| ChaGo-K-1 | 0.869 |
| NCI-H2170 | 0.423 |
| NCI-H2405 | 0.381 |

| Cell Line | relative viability |
| --- | --- |
| HOP-62 | 0.489 |
| HCC-44 | 0.901 |
| NCI-H522 | 0.788 |
| LU99A | 0.329 |
| BEN | 0.461 |
| HARA | 0.233 |
| SW 900 | 0.463 |
| HCC-78 | 0.479 |
| NCI-H322M | 0.473 |
| LCLC-97TM1 | 0.135 |
| NCI-H2009 | 0.18 |
| A-427 | 0.327 |
| NCI-H441 | 0.163 |
| NCI-H661 | 0.256 |
| NCI-H1734 | 0.167 |
| NCI-H460 | 0.019 |
| NCI-H2347 | 0.374 |
| SK-LU-1 | 0.311 |
| NCI-H1395 | 0.504 |
| 201T | 0.363 |
| NCI-H1915 | 0.39 |
| HCC-827 | 0.398 |
| LXF-289 | 0.577 |
| NCI-H23 | 0.292 |

| Cell Line | relative viability |
| --- | --- |
| NCI-H647 | 0.19 |
| CAL-12T | 0.151 |
| NCI-H1651 | 0.534 |
| EPLC-272H | 0.307 |
| NCI-H2228 | 0.408 |
| NCI-H1792 | 0.837 |
| NCI-H1355 | 0.589 |
| NCI-H3122 | 0.145 |
| NCI-H1437 | 0.251 |
| NCI-H1755 | 0.458 |
| NCI-H2023 | 0.0824 |
| HCC-15 | 0.537 |
| NCI-H1793 | 0.285 |
| PC-14 | 0.0604 |
| EKVX | 0.375 |
| LC-2-ad | 0.372 |
| NCI-H1944 | 0.268 |
| NCI-H1975 | 0.176 |
| RERF-LC-KJ | 0.55 |
| ABC-1 | 0.442 |
| NCI-H358 | 0.119 |
| NCI-H650 | 0.452 |
| PC-3 [JPC-3] | 0.575 |

compound: O=C(NC1CCNCC1)c1n[nH]cc1NC(=O)c1c(Cl)cccc1Cl [AT-7519] + O=C(c1cc(Cc2n[nH]c(=O)c3ccccc23)ccc1F)N1CCN(C(=O)C2CC2)CC1 [Olaparib] (partner 8 µM); experiment: as above; conditions: first compound 0.01 µM
Summary of the method: as §1

| Cell Line | relative viability |
| --- | --- |
| NCI-H2342 | 0.391 |
| NCI-H727 | 0.711 |
| NCI-H1650 | 0.899 |
| EBC-1 | 0.88 |
| NCI-H1703 | 0.454 |
| NCI-H1993 | 1.04 |
| SW 1573 | 0.463 |
| NCI-H838 | 0.812 |
| LCLC-103H | 0.763 |
| NCI-H520 | 0.341 |
| NCI-H2126 | 0.902 |
| EMC-BAC-2 | 0.508 |
| NCI-H2085 | 0.768 |
| Calu-6 | 0.622 |
| HCC-366 | 0.409 |
